Assay results reported in the CheMixHub viscosity set.

Test: xn = mol fraction of the nth substance listed

Nc1ccccc1 + CCCCCO
viscosity [mPa·s]
Details	293.15 K	303.15 K	313.15 K	323.15 K
100 kPa, x1 = 0.0802	3.66	2.77	2.11	1.66
100 kPa, x1 = 0.1304	–	2.664	2.018	–
100 kPa, x1 = 0.1536	3.42	2.6	2.01	1.57
100 kPa, x1 = 0.2363	3.26	2.48	1.93	1.52
100 kPa, x1 = 0.2524	–	2.309	1.697	–
100 kPa, x1 = 0.3418	3.15	2.4	1.86	1.48
100 kPa, x1 = 0.3885	–	1.947	1.361	–
100 kPa, x1 = 0.4371	3.11	2.34	1.84	1.47
100 kPa, x1 = 0.4944	–	1.724	1.147	–
100 kPa, x1 = 0.5521	3.12	2.32	1.84	1.47
100 kPa, x1 = 0.5745	–	1.627	1.051	–
100 kPa, x1 = 0.6518	3.21	2.37	1.88	1.5
100 kPa, x1 = 0.6878	–	1.619	1.031	–
100 kPa, x1 = 0.7411	3.35	2.47	1.96	1.56
100 kPa, x1 = 0.8105	–	1.865	1.245	–
100 kPa, x1 = 0.8487	3.63	2.66	2.12	1.67
100 kPa, x1 = 0.924	–	2.42	1.75	–
100 kPa, x1 = 0.9425	4.04	2.95	2.32	1.83
101.33 kPa, x2 = 0.1207	3.714	–	–	–
101.33 kPa, x2 = 0.2883	3.273	–	–	–
101.33 kPa, x2 = 0.3221	3.227	–	–	–
101.33 kPa, x2 = 0.3789	3.161	–	–	–
101.33 kPa, x2 = 0.4074	3.138	–	–	–
101.33 kPa, x2 = 0.5661	3.087	–	–	–
101.33 kPa, x2 = 0.7695	3.258	–	–	–
101.33 kPa, x2 = 0.8055	3.326	–	–	–
101.33 kPa, x2 = 0.8557	3.444	–	–	–
101.33 kPa, x2 = 0.9099	3.605	–	–	–
101.33 kPa, x2 = 0.9484	3.756	–	–	–
101.33 kPa, x2 = 0.9525	3.775	–	–	–

OC[C@H]1O[C@@H]2O[C@H]3[C@H](O)[C@@H](O)[C@@H](O[C@H]4[C@H](O)[C@@H](O)[C@@H](O[C@H]5[C@H](O)[C@@H](O)[C@@H](O[C@H]6[C@H](O)[C@@H](O)[C@@H](O[C@H]7[C@H](O)[C@@H](O)[C@@H](O[C@H]8[C@H](O)[C@@H](O)[C@@H](O[C@H]1[C@H](O)[C@H]2O)O[C@@H]8CO)O[C@@H]7CO)O[C@@H]6CO)O[C@@H]5CO)O[C@@H]4CO)O[C@@H]3CO + O
viscosity [mPa·s], 101 kPa
Details	298.15 K	310.15 K
x1 = 7.87e-06	0.8909	0.6934
x1 = 8.39e-06	0.891	0.6935
x1 = 1.613e-05	0.8917	0.6944
x1 = 1.679e-05	0.8918	0.6945
x1 = 3.14e-05	0.8931	0.6962
x1 = 6.268e-05	0.8961	0.6998
x1 = 6.666e-05	0.8964	0.7003
x1 = 0.0001254	0.9019	0.7071
x1 = 0.0001309	0.9024	0.7078
x1 = 0.0001573	0.9049	0.7109
x1 = 0.0001654	0.9057	0.7118
x1 = 0.0001906	0.908	0.7148
x1 = 0.0002383	0.9125	0.7203

COCCOCCOCCOC + O
viscosity [mPa·s], 101.33 kPa
Details	298 K	298.15 K
x1 = 0.0057	–	1.058
x1 = 0.0077	1.15	–
x1 = 0.0124	–	1.278
x1 = 0.0143	1.38	–
x1 = 0.0176	–	1.444
x1 = 0.0247	–	1.737
x1 = 0.0255	1.83	–
x1 = 0.0326	–	2.063
x1 = 0.0455	–	2.613
x1 = 0.0484	2.79	–
x1 = 0.0673	–	3.462
x1 = 0.0796	3.89	–
x1 = 0.0814	3.95	–
x1 = 0.0826	–	4.032
x1 = 0.0934	4.25	–
x1 = 0.1017	–	4.344
x1 = 0.1022	4.4	–
x1 = 0.1092	4.49	–
x1 = 0.1166	4.6	–
x1 = 0.1215	–	4.581
x1 = 0.1407	4.68	–
x1 = 0.1423	–	4.678
x1 = 0.1607	–	4.625
x1 = 0.1731	4.63	–
x1 = 0.1907	–	4.512
x1 = 0.2117	4.39	–
x1 = 0.2288	–	4.179
x1 = 0.2745	3.87	3.819
x1 = 0.3074	–	3.588
x1 = 0.3483	3.29	–
x1 = 0.3653	–	3.236
x1 = 0.4097	–	3.035
x1 = 0.4311	2.9	–
x1 = 0.4857	–	2.706
x1 = 0.5899	2.41	–
x1 = 0.593	–	2.398
x1 = 0.6382	–	2.311
x1 = 0.702	–	2.269
x1 = 0.745	2.16	–
x1 = 0.7475	–	2.22
x1 = 0.7813	–	2.166
x1 = 0.7839	2.1	–
x1 = 0.8141	–	2.121
x1 = 0.8687	2.04	–
x1 = 0.8937	–	2.068
x1 = 0.9665	–	2.035

CCCCOC(=O)c1ccccc1 + CCCCCCCC
101 kPa
Details	viscosity [mPa·s]
298.15 K, x2 = 0.0819	2.313
298.15 K, x2 = 0.1257	2.139
298.15 K, x2 = 0.1681	1.973
298.15 K, x2 = 0.2263	1.771
298.15 K, x2 = 0.2749	1.61
298.15 K, x2 = 0.3195	1.476
298.15 K, x2 = 0.3719	1.339
298.15 K, x2 = 0.4121	1.246
298.15 K, x2 = 0.473	1.117
298.15 K, x2 = 0.5153	1.038
298.15 K, x2 = 0.5596	0.971
298.15 K, x2 = 0.6051	0.9
298.15 K, x2 = 0.6559	0.827
298.15 K, x2 = 0.7053	0.772
298.15 K, x2 = 0.7427	0.729
298.15 K, x2 = 0.794	0.674
298.15 K, x2 = 0.8349	0.635
298.15 K, x2 = 0.8859	0.591
298.15 K, x2 = 0.9357	0.552
308.15 K, x2 = 0.0945	1.866
308.15 K, x2 = 0.1325	1.737
308.15 K, x2 = 0.1853	1.579
308.15 K, x2 = 0.2276	1.465
308.15 K, x2 = 0.2687	1.364
308.15 K, x2 = 0.3288	1.233
308.15 K, x2 = 0.3769	1.139
308.15 K, x2 = 0.4139	1.073
308.15 K, x2 = 0.4741	0.975
308.15 K, x2 = 0.5134	0.916
308.15 K, x2 = 0.5651	0.848
308.15 K, x2 = 0.6054	0.797
308.15 K, x2 = 0.6525	0.743
308.15 K, x2 = 0.7052	0.688
308.15 K, x2 = 0.7478	0.649
308.15 K, x2 = 0.7925	0.61
308.15 K, x2 = 0.8351	0.577
308.15 K, x2 = 0.8734	0.549
308.15 K, x2 = 0.9291	0.514
318.15 K, x2 = 0.0361	1.714
318.15 K, x2 = 0.0929	1.554
318.15 K, x2 = 0.1407	1.438
318.15 K, x2 = 0.196	1.309
318.15 K, x2 = 0.2419	1.215
318.15 K, x2 = 0.2984	1.108
318.15 K, x2 = 0.346	1.027
318.15 K, x2 = 0.4006	0.943
318.15 K, x2 = 0.4467	0.878
318.15 K, x2 = 0.499	0.812
318.15 K, x2 = 0.5446	0.759
318.15 K, x2 = 0.5955	0.706
318.15 K, x2 = 0.6382	0.665
318.15 K, x2 = 0.6905	0.619
318.15 K, x2 = 0.7358	0.584
318.15 K, x2 = 0.7849	0.546
318.15 K, x2 = 0.8274	0.518
318.15 K, x2 = 0.8768	0.488
318.15 K, x2 = 0.9193	0.464

COCCOCCOCCOC + CO
viscosity [mPa·s], 100 kPa
Details	293.15 K	298.15 K	303.15 K
x2 = 0.0543	2.129	1.922	1.733
x2 = 0.0988	2.083	1.882	1.696
x2 = 0.1978	1.982	1.795	1.621
x2 = 0.3013	1.864	1.689	1.527
x2 = 0.3994	1.737	1.58	1.434
x2 = 0.5183	1.57	1.433	1.302
x2 = 0.5962	1.443	1.321	1.203
x2 = 0.6983	1.26	1.158	1.058
x2 = 0.7969	1.055	0.975	0.894
x2 = 0.8472	0.944	0.875	0.804
x2 = 0.8993	0.825	0.767	0.705
x2 = 0.9489	0.711	0.662	0.608

[Cl-].[NH4+] + O
viscosity [mPa·s]
Details	298.15 K	308.15 K	313.15 K	323.15 K
101.3 kPa, x1 = 0.00112	–	0.7299	0.6608	0.556
101.3 kPa, x1 = 0.002247	–	0.7289	0.6597	0.5555
101.3 kPa, x1 = 0.004484	–	0.7281	0.659	0.5551
101.3 kPa, x1 = 0.008927	–	0.7279	0.6586	0.5547
101.3 kPa, x1 = 0.0177	–	0.7315	0.661	0.557
101.33 kPa, x1 = 0.000905	–	0.7306	0.6614	0.5565
101.33 kPa, x1 = 0.002718	–	0.7295	0.6608	0.556
101.33 kPa, x1 = 0.00453	–	0.7288	0.6603	0.5556
101.33 kPa, x1 = 0.006344	–	0.7285	0.6598	0.5544
101.33 kPa, x1 = 0.008159	–	0.731	0.662	0.557
101.33 kPa, x1 = 0.1165	1.094	–	–	–

O=S(=O)([O-])NC1CCCCC1.[K+] + O
viscosity [mPa·s], 101 kPa
Details	x1 = 0.0007156	x1 = 0.001095	x1 = 0.001452	x1 = 0.001751	x1 = 0.002086	x1 = 0.002528	x1 = 0.002966	x1 = 0.003212	x1 = 0.003506	x1 = 0.003747
293.15 K	1.021	1.031	1.041	1.049	1.058	1.072	1.085	1.091	1.101	1.107
298.15 K	0.9071	0.9163	0.9245	0.9318	0.9397	0.9515	0.9626	0.9683	0.9765	0.982
303.15 K	0.8126	0.8204	0.8278	0.8343	0.8412	0.8514	0.8611	0.866	0.873	0.8778
313.15 K	0.6648	0.6714	0.6773	0.6823	0.6878	0.6957	0.7032	0.7073	0.7127	0.7164
323.15 K	0.5565	0.5615	0.5663	0.5703	0.5748	0.5809	0.5873	0.5902	0.5948	0.5977
